From patent US10259796B2, “Oxaspiro[2.5]octane derivatives and analogs” (Zafgen, Inc., priority 2011, dated 2019)
Where two headings read alike, the source gives them in different places.

Columns and labels:
[1] = Cell Based Assay (inhibition range); conditions: cells printed in nM
recombinant human MetAP2 = target: T1, recombinant human MetAP2 (Homo sapiens, UniProt P50579); experiment: MetAP2 enzyme assay (inhibition of recombinant MetAP2, Met-Gly-Met-Met substrate); format: biochemical; conditions: 50 nM
T1 construct: made in house; host or cells: High Five insect cells (Bac-to-Bac baculovirus)
Procedure: Exemplary procedures for expression and purification of MetAP2 are shown in Griffith et al. (PNAS (1998) 95(26):15183-15188). Briefly, recombinant His-tagged human MetAP2 is expressed by using a Bac-to-Bac baculovirus expression system (GIBCO/BRL). Recombinant baculovirus stocks are generated and amplified as per the manufacturer's instructions. Protein is harvested 36 hr after baculovirus infection of two 15-cm plates of High Five cells.
The cell pellet are weighed and lysed (in 5 ml/g of wet pellet) in pre-chilled lysis buffer [buffer B+1% Nonidet P-40/1 mM phenymethylsulfonyl fluoride (PMSF)/2 μg/ml leupeptin/2 μg/ml aprotinin/1 μg/ml pepstatin]. The lysate is incubated on ice for 10 min and centrifuged at 10,000×g for 10 min. […] The Talon resin is pelleted by centrifugation at 1,200×g for 3 min and washed with 4×10 ml of buffer B. During the final wash, the resin is slurried into a Bio-Rad Econo column. The 6×His-tagged MetAP2 is eluted with 6 ml of 50 mM imidazole in buffer B, and 0.5 ml fractions are collected. The amount and purity of recombinant MetAP2 is analyzed by the absorbance at 280 nm and SDS/PAGE (10% gel). The fractions containing the highest amounts of MetAP2 are pooled and dialyzed against 3 liters of buffer B overnight before storage at 4° C.
An enzyme assay is performed in a 96-well format as described in Griffith et al. (PNAS (1998) 95(26):15183-15188). […] To begin the enzymatic reaction, Met-Gly-Met-Met is added to a final concentration of 4 mM and incubated at 37° C. The reaction is quenched after 20 min by adding EDTA to a concentration of 10 mM. Released methionine is quantitated as described in Ben-Bassat et al. (J Bacteriol (1987) 169:751-757).
IC50 values are calculated and compounds herein are determined to be active inhibitors of MetAP2, with some having nanomolar activities.

[2] = Mice weight loss, 7 day, 1 mg/kg/day oral gavage, diet-induced obese mice; format: in vivo; conditions: Mus musculus, 168 h, read-out: Mice Wt Loss 7 day % WL 1 mpk
Description: Lean body mass is important to normal function in subjects. Substantial loss of lean body mass is not a desirable consequence of a therapy for an overweight or obese subject. A study is undertaken to analyze weight loss with respect to lean body mass.
Mice are divided into two groups, a diet-induced obese group and a lean group (control). For the diet-induced obese group, C57BL/6NTac mice maintained prior to and during the study on a diet containing 60% fat on a kilocalorie basis are further divided into two groups, fifteen mice per group. Average body weight of these diet-induced obese mice is 40 g at the start of the study. For the lean group, fifteen C57BLI6NTac mice are maintained on a diet containing 4.3% by weight fat prior to and during the study. Average body weight of these lean mice is 33 g at the start of the study. Daily food consumption is also recorded.
Compounds of the invention are administered to one of the diet-induced obese mice groups by oral gavage as a solution in 10% DMSO, at dose of 1 mg/kg/day, 7 days. The other diet-induced obese mice group and the lean mice group are not administered anything.

[3] = Body weight % difference, diet-induced obese mice dosed PO once a day for 10 days with 3 mg/kg; format: in vivo; conditions: diet-induced obese C57BL/6NTac mice
MetAP2 enzyme = target: T2, MetAP2 enzyme (Mus musculus, UniProt O08663); experiment: THX1 N-terminal peptide in mouse testes (MetAP2 inhibition in testes) after 10 days PO 3 mg/kg; format: in vivo; conditions: mice, PO once a day for 10 days, testes taken 24 hours after last dose
T2 construct: from tissue; host or cells: testes of diet-induced obese C57BL/6NTac mice
Procedure: Diet-induced obese mice, C57BL/6NTac mice, were dosed PO once a day for 10 days with 3 mg/kg of compound 201 (fumagillin), 202, 203, 231 and 233. On day 11, 24 hours after the last dose the mice are sacrificed and the testes are dissected out and frozen. The frozen testes are subsequently homogenized and subjected to endoproteinase Glu-C digestion. The resulting digest mixture is analyzed by LC-MS/MS to quantitate the level of the N-terminal peptide of thioredoxin (Thrx), amino acid 1-6. Thioredoxin is a selective substrate of the MetAP2 enzyme and the degree of unprocessed thioredoxin (amino acid 1-6 rather than the processed des-Met thioredoxin amino acid 2-6) is indicative of the level of MetAP2 inhibition in a given tissue.

[4] = 1 hr, read-out: MetAP2 Enzyme Assay 1 hr 50 nM
[5] = 2 hr, read-out: MetAP2 Enzyme Assay 2 hr 50 nM
[6] = 4 hr, read-out: MetAP2 Enzyme Assay 4 hr 50 nM
[7] = diet-induced obese C57BL/6NTac mice, oral gavage, 1 mg/kg/day, 7 days

T1 sequence (P50579 whole entry): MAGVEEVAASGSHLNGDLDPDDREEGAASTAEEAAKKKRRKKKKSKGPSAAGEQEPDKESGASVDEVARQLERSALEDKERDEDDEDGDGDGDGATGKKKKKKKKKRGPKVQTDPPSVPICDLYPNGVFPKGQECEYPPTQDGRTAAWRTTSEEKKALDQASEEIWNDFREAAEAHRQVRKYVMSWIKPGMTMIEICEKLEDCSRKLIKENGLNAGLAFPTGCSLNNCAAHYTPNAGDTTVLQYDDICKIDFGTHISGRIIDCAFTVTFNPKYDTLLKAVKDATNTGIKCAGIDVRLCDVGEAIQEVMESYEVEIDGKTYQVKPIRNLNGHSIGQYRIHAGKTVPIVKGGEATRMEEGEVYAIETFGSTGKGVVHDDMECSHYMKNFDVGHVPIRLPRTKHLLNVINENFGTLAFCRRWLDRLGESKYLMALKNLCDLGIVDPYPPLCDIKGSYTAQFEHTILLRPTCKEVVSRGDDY
T2 sequence (O08663 whole entry): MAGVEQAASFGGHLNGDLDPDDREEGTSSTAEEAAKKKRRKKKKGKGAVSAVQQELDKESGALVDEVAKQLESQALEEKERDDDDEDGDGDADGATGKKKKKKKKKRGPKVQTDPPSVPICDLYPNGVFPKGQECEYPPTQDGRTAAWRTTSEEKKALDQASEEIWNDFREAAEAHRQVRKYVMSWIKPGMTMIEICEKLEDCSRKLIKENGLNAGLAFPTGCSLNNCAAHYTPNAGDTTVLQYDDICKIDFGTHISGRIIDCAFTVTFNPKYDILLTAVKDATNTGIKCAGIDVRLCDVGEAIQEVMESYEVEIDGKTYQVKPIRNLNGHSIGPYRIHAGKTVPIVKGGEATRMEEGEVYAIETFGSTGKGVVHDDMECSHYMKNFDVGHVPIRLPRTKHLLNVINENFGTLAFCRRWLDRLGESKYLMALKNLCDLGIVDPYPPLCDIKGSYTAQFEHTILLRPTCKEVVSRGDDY

SMILES	IC50 [1]	inhibition at 0.05 µM (recombinant human MetAP2; [4])	inhibition at 0.05 µM (recombinant human MetAP2; [5])	inhibition at 0.05 µM (recombinant human MetAP2; [6])	change in vivo at 1 mg/kg [2, 7]	change in vivo at 1 mg/kg ([2]; po)	weight loss over 10 days of treatment [3]	inhibition of the enzyme (MetAP2) in the testes, by THX1 N-terminal peptide (MetAP2 enzyme)
CO[C@@H]1[C@@H](F)CC[C@]2(CO2)[C@H]1[C@@]1(C)O[C@@H]1CC=C(C)C [Example 23]	10 to 100 nM	23%	28%	27%	-0.33%	–	–	–
CCCC/C=C/C[C@H]1O[C@]1(C)[C@H]1[C@H](OC)C(=O)CC[C@]12CO2 [Example 25]	10 to 100 nM	19%	40%	40%	–	0.1%	–	–
CO[C@@H]1[C@H](OC(=O)CCCCCCCCC(=O)O[C@@H]2CC[C@]3(CO3)[C@@H]([C@@]3(C)O[C@@H]3CC=C(C)C)[C@@H]2OC)CC[C@]2(CO2)[C@H]1[C@@]1(C)O[C@@H]1CC=C(C)C [Example 27]	10 to 100 nM	–	–	48%	–	4.4%	–	–
CO[C@@H]1[C@H](OC(=O)NCCC2CCCN2C)CC[C@]2(CO2)[C@H]1[C@@]1(C)O[C@@H]1CC=C(C)C (stereo partly drawn) [Example 29]	< 10 nM	–	–	63%	5.7%	–	–	–
CO[C@@H]1[C@H](OC(=O)NC2CN3CCC2CC3)CC[C@]2(CO2)[C@H]1[C@@]1(C)O[C@@H]1CC=C(C)C (stereo partly drawn) [Example 30]	< 10 nM	–	–	30%	-0.9%	–	–	–
CO[C@@H]1[C@H](OC(=O)N[C@@H](C(=O)NCCCN(C)C)C(C)C)CC[C@]2(CO2)[C@H]1[C@@]1(C)O[C@@H]1CC=C(C)C [Example 32]	< 10 nM	–	–	54%	0.3%	–	–	–
CO[C@@H]1[C@H](OC(=O)N[C@@H](C(=O)NCCC2CCCN2C)C(C)C)CC[C@]2(CO2)[C@H]1[C@@]1(C)O[C@@H]1CC=C(C)C (stereo partly drawn) [Example 33]	< 10 nM	–	–	43%	2.1%	–	–	–
CO[C@@H]1[C@H](OC(=O)/C=C/C=C/C=C/C=C/C(=O)O)CC[C@]2(CO2)[C@H]1[C@@]1(C)O[C@@H]1CC=C(C)C [compound 201, fumagillin, reference compound]	–	–	–	–	–	–	robust weight loss	No inhibition
COC(=O)CCCCCCCCC(=O)O[C@@H]1CC[C@]2(CO2)[C@@H]([C@@]2(C)O[C@@H]2CC=C(C)C)[C@@H]1OC [compound 205]	–	–	–	–	–	–	robust weight loss	No inhibition
CO[C@@H]1[C@H](OC(=O)CCCCCCCCC(=O)O)CC[C@]2(CO2)[C@H]1[C@@]1(C)O[C@@H]1CC=C(C)C [compound 206]	–	–	–	–	–	–	robust weight loss	No inhibition
CCCCCCCCCCC(=O)O[C@@H]1CC[C@]2(CO2)[C@@H]([C@@]2(C)O[C@@H]2CC=C(C)C)[C@@H]1OC [compound 216]	–	–	–	–	–	–	robust weight loss	No inhibition
